pIC50: −log10 of the molar value. Read-outs that look alike come from different tables or passages of the source.
How the values were obtained:
animals = conditions: in vivo; cited from earlier work
kappa receptors = molecular target: T1, kappa receptors (Cavia porcellus, UniProt P41144); test: in vitro affinity for kappa receptors; format: binding
T1 construct: from tissue
Experimental: (§1) The "in vitro" study of the affinity of the compounds according to the invention for the three opium receptors is carried out in accordance with the technique described by F. Roman and coll. in J. Pharm. Pharmacol. 1987, 39, p. 404-407 and the study of the affinity for PCP receptors is carried out in accordance with the technique described by Vignon J. and coll. in "Brain Res." 1983; 280, p. 194-7 and 1986; 378, p. 133-41.
(§2) The results shown in table 3 are, for each receptor studied, expressed in IC50, which are the nanomolar concentrations of the dissolved products which are capable of inhibiting 50% of the bonds between the specific radioactive ligand to the receptor under consideration.

delta receptors = molecular target: T2, delta receptors (Cavia porcellus, UniProt A0A286XTF2); test: in vitro affinity for delta receptors; format: binding; conditions: Table 3; read-out: delta rec. IC50
T2 construct: from tissue
Experimental: as §1, §2

sigma receptors = molecular target: T3, sigma receptors (Cavia porcellus, UniProt Q60492); test: in vitro affinity for sigma receptors, competition with (+)[3H]SKF10,047; format: binding, guinea-pig (cerebral membranes)
T3 construct: sigma receptors of the cerebral membranes of the guinea-pig used in this study; from tissue; host or cells: guinea-pig cerebral membranes
Experimental: The test is carried out by incubating solutions of suitable concentrations of the products with standard samples of membranes and determining, after filtration, the residual radioactivity of the solution.

mu receptors = test: in vitro affinity for mu receptors; format: binding; conditions: for pIC50: Table 3, read-out: mu rec. IC50
Experimental: as §1, §2

[1] = protection from convulsions induced by picrotoxin in mice; format: in vivo, "Swiss" male mice; conditions: 50 mg/kg i.p.; picrotoxin 24 mg/kg i.p. 30 minutes later; * p<0.05, ** p<0.01, *** p<0.001
Experimental: b) The psychotropic properties of the compounds were determined by the protection from convulsions induced by picrotoxin in mice, which was realized in accordance with a method derived from that of Krall and coll., "Epilepsia", 1978, 19, p. 409-428.
The administration of picrotoxin to animals causes a convulsive attack characterized by a myoclonic extension syndrome followed by extension of the limbs leading to death of the animals. Certain substances, in particular those which act on the GABA/benzodiazepine/Cl-ionophor complex, provide protection of the animals from these convulsive attacks.
In practice, the study is carried out on groups of 10 "Swiss" male mice weighing about 20 g, to which the product under investigation is administered in aqueous solution either intraperitoneally (i.p.) or orally (p.o.).
An intraperitoneal injection of a solution of picrotoxin in an amount of 24 mg/kg in a volume of 0.2 ml per animal is then performed, either 30 minutes after intraperitoneal administration of the product or 60 minutes after oral administration of the product, the dose of the product injected in this way causing a clonic attack which leads to death of the untreated animals. Under the conditions of the test, suppression of the tonic extension phase is found in the animals treated.
The results are expressed:
either as the percentage of animals protected from this phase under the action of 50 mg/kg compound under investigation administered i.p. or 100 mg/kg p.o.,
or in the ED50 for each of these groups, which is the effective dose of the compound under investigation expressed in mg/kg which protects 50% of animals from this extension phase, the significance value of the results generally being indicated in the following manner: […]

PCP receptors = test: in vitro affinity for phencyclidine (PCP) receptors; format: binding; conditions: Table 3; read-out: PCP rec. IC50
Experimental: as §1, §2

[2] = inhibition of gastro-duodenal ulcers caused by cysteamine; format: in vivo, Wistar female rats; conditions: Rattus norvegicus; cysteamine hydrochloride 400 mg/kg s.c.; products orally or subcutaneously; read-out: ED50 - ulceration scores
Experimental: This activity is set in relation to the capacity of the products to cause an increase in the alkaline secretion in the duodenum in anaesthetized animals.
In this test, groups of 6 Wistar female rats with an average weight of 200 g receive a subcutaneous injection of cysteamine hydrochloride in an amount of 400 mg/kg. The products under investigation are administered orally or subcutaneously 1 h or, respectively, 30 minutes before the ulcerogenic agent.
Ten hours thereafter, the rats are sacrificed by elongation and their stomach and duodenum are removed, rinsed with physiological solution and mounted on a card. The presence of ulcers in the antro-pyloric-duodenal zone is examined and their area, expressed in mm^2, is evaluated by multiplying the two main perpendicular axis of the lesion. Statistical analysis of the results is performed with the aid of the Student test for the ulcerated areas in comparison with a control group receiving only excipient.
The results presented in table 5 are expressed in ED50 of ulceration scores, which are the effective doses, expressed in mg/kg product, which cause inhibition of 50% of the ulcerations caused by cysteamine.

[3] = alkaline duodenal secretion in anaesthetized rats; format: in vivo, male rats; conditions: 1 mg/kg intravenously; for Increase AUC 1 2 h: AUC of alkaline flow rate 1 h to 2 h compared with control animals; for Increase in secretion: maximum increase, anaesthetized rats
Experimental: The activity of the products on alkaline duodenal secretion in rats is studied in accordance with a technique described by FLEMSTROM and coll. Gastroenterology, 1983, 84, p. 787-794.
The test comprises determination every 10 minutes, for 3 hours and in situ, of the alkaline secretion of a duodenal segment 12 mm in length, with no Brunner glands and situated 2 cm from the pylorus.
The study is performed on male rats of about 350 g previously anaesthetized, in which the duodenal segment chosen in cannulated by 2 glass tubes in accordance with the technique described by the author, and in which a luminal perfusate consisting of 5 ml isotonic NaCl solution is maintained at 37° C.
The variations in the intraluminal alkaline secretion are measured by pHmetry every 10 minutes by means of an automated system maintaining a constant pH of 7.4 by in situ addition of a 0.04N solution of hydrochloric acid. Fifty minutes after the start of the experiment, the products under investigation are administered intravenously or intraarterially in an amount of 1 mg/kg and the volume of hydrochloric acid introduced, which is a reflection of the in situ increase in alkaline secretion, is measured every 10 minutes for 3 hours with respect to the start of the experiment, that is to say for 130 minutes after injection of the product under investigation.
The following are determined for each product:
a) The maximum increase in secretion in micro-eq/cm/h under the action of the drug, taking into account the basal secretion of the same animals observed for 50 minutes before administration of the product.
The results are shown in table 6, which follows, for the products (I) according to the invention administered intravenously in an amount of 1 mg/kg.

[4] = antagonism of amnesia caused by scopolamine, passive avoidance test; format: in vivo, mice; conditions: for % antagonism of the amnesia: 0.25 mg/kg orally, scopolamine 1 mg/kg i.p. 30 minutes later, latency after 24 hours; for antagonism of amnesia caused by scopolamine (in words): mouse, in vivo
Experimental: The animal is introduced into the illuminated compartment, and when it moves to the dark compartment it receives an electric current (0.35 mA) through the base until it returns to the illuminated compartment, from where it is then removed.
After 24 hours, the operation is repeated. The mouse is replaced in the apparatus and it avoids entering into the dark compartment. The time which elapses before passage into this compartment is recorded; under the conditions of the experiment, the efficacy of the compounds under investigation in antagonizing the amnesic effect of scopolamine, which is administered intraperitoneally in an amount of 1 mg/kg 30 minutes before the animal is first introduced into the apparatus, can be evaluated.
In control mice which have received only scopolamine, the time elapsed before passage after 24 hours is remarkably lower than that observed in the untreated animals.
The study of the products according to the invention by this method is performed on groups of 18 mice and the products are administered orally on the first day in an amount of 0.25 mg/kg 30 minutes before administration of scopolamine i.p.

[5] = Table 3, read-out: kappa rec. IC50
[6] = Table 2, (+)[3H]SKF10,047, guinea-pig cerebral membranes, read-out: IC50 (bonding affinity to sigma receptors)

T1 sequence (P41144 whole entry): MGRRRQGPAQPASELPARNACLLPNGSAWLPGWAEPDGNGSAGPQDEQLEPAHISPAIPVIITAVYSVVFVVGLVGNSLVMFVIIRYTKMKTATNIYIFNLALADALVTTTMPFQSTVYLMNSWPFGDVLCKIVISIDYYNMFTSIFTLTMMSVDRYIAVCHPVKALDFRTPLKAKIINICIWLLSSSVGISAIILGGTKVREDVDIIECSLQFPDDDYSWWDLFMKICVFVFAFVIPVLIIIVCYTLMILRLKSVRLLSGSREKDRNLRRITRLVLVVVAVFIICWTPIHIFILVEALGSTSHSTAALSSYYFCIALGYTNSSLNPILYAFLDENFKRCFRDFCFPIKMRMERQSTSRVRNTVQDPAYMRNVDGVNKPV
T3 sequence (Q60492 whole entry): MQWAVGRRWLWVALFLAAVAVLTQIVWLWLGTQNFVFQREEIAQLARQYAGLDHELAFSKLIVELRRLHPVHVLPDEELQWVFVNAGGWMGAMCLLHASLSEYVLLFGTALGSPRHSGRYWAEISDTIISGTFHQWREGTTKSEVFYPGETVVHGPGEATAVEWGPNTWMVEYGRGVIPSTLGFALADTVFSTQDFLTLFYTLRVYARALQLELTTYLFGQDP
T2 sequence (A0A286XTF2 1-366): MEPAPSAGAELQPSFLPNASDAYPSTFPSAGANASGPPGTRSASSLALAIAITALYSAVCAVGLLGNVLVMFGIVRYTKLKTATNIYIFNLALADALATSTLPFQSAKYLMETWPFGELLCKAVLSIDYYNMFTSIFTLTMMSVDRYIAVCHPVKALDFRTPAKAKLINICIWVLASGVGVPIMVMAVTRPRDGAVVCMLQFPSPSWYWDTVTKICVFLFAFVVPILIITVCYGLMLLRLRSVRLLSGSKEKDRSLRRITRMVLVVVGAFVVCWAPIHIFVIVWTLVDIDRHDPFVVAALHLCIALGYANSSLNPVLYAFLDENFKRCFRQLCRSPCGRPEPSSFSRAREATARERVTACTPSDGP

| Compound | toxicity on animals (in words) (animals) | pIC50 (kappa receptors; kappa rec. IC50, Table 3) | pIC50 (delta receptors) | pIC50 (kappa receptors; [5]) | pIC50 (sigma receptors; [6]) | pIC50 (mu receptors) | i.p.: % prot. (inhibition of convulsions induced by picrotoxin) [1] [%] | pIC50 (PCP receptors) | ED50 [2] [mg/kg] | Increase AUC 1 2 h [3] | Increase in secretion [3] [micro-eq/cm/h] | mu rec. relative value of the IC50 (mu receptors; relative to IC50 of sigma affinity = 1) | % antagonism of the amnesia [4] [%] | pIC50 (sigma receptors; IC50 (bonding affinity to sigma receptors), Table 2, (+)[3H]SKF10,047, guinea-pig cerebral membranes) | pIC50 (sigma receptors; sigma rec. IC50, Table 3) | antagonism of amnesia caused by scopolamine (in words) [4] |
| --- | --- | --- | --- | --- | --- | --- | --- | --- | --- | --- | --- | --- | --- | --- | --- | --- |
| Cc1ccccc1NC(=N)Nc1ccccc1C [DTG, ditolylguanidine, reference compound] | excessive toxicity | 5.19 | 4.48 | – | – | – | – | – | – | – | – | – | – | – | – | – |
| CCC(CC=Cc1ccccc1)(c1cccs1)N(C)CC1CC1 (stereo not drawn) [Example 21, α-Cinnamyl-N-cyclopropylmethyl-α-ethyl-N-methyl-2-thiophenemethylamine] | – | – | 5.13 | 5.92 | 7.02 | 5.81 | 50 | 5.20 | 48.2 | – | – | – | – | – | – | – |
| CCC(CC=Cc1ccccc1)(c1ccccc1)N(C)CC1CCCCC1 (stereo not drawn) [Example 7, α-Cinnamyl-N-cyclohexylmethyl-α-ethyl-N-methyl-benzylamine] | – | – | 4.29 | 4.14 | 7.49 | < 4.00 | – | 4.29 | 10.5 | 52.8 | 6.0 | > 1000 | 56 | – | – | – |
| CCC(CC=Cc1ccccc1)(c1ccccc1)N(C)CC1CC1 (stereo not drawn) [Example 9, α-Cinnamyl-N-cyclopropylmethyl-α-ethyl-N-methyl-benzylamine] | – | – | 4.08 | 5.21 | – | 4.80 | 90 | 5.44 | 26.2 | 97.6 | 10.0 | – | 76 | 7.62 | 7.62 | conclusive of an activity of the products according to the invention at a low dose |
| CCC(CC=Cc1ccccc1)(c1ccccc1)N(C)CC1CCC1 (stereo not drawn) [Example 12, α-Cinnamyl-N-cyclobutylmethyl-α-ethyl-N-methyl-benzylamine] | – | – | 4.07 | 5.20 | 7.30 | 5.14 | – | – | 12.2 | 41.6 | 7.0 | – | 98 | – | – | conclusive of an activity of the products according to the invention at a low dose |
